Data from ChEMBL document CHEMBL3745602, “Design, synthesis and in vivo screening of some novel quinazoline analogs as anti-hyperlipidemic and hypoglycemic agents” (2016).

Legend:
Type in all cases: functional
Rattus norvegicus [1] = experiment: Effect on body weight in Sprague-Dawley rat at 250 mg/kg, po dosed for last 7 days during 30 day high-fat diet feeding schedule measured every 5th day (reference value: 207.67 +/- 1.2 g)
Rattus norvegicus [2] = experiment: Hypolipidemic activity in high fat-induced hyperlipidemic Sprague-Dawley rat assessed as cholesterol level at 250 mg/kg, po dosed for last 7 days during 30 day high-fat diet feeding schedule (reference value: 70.8 +/- 0.5 mg/dl)
Rattus norvegicus [3] = experiment: Hypolipidemic activity in high fat-induced hyperlipidemic Sprague-Dawley rat assessed as LDL level at 250 mg/kg, po dosed for last 7 days during 30 day high-fat diet feeding schedule (reference value: 22.42 +/- 0.41 mg/dl)
Rattus norvegicus [4] = experiment: Hypolipidemic activity in high fat-induced hyperlipidemic Sprague-Dawley rat assessed as HDL level at 250 mg/kg, po dosed for last 7 days during 30 day high-fat diet feeding schedule (reference value: 37.5 +/- 0.96 mg/dl)
Rattus norvegicus [5] = experiment: Hypolipidemic activity in high fat-induced hyperlipidemic Sprague-Dawley rat assessed as VLDL level at 250 mg/kg, po dosed for last 7 days during 30 day high-fat diet feeding schedule (reference value: 23.48+/- 0.78 mg/dl)
Rattus norvegicus [6] = experiment: Hypolipidemic activity in high fat-induced hyperlipidemic Sprague-Dawley rat assessed as triglyceride level at 250 mg/kg, po dosed for last 7 days during 30 day high-fat diet feeding schedule (reference value: 74.3+/- 0.48 mg/dl)
Rattus norvegicus [7] = experiment: Hypoglycemic activity in Sprague-Dawley rat assessed as blood glucose level at 250 mg/kg, po dosed for last 7 days during 30 day high-fat diet feeding schedule (reference value: 63.70 +/- 0.7 mg/dl)
Rattus norvegicus [8] = experiment: Hypolipidemic activity in high fat-induced hyperlipidemic Sprague-Dawley rat assessed as ratio of cholesterol level to HDL level at 250 mg/kg, po dosed for last 7 days during 30 day high-fat diet feeding schedule (reference value: 1.88 +/- 0.05)

SMILES | Activity (Rattus norvegicus [1]) [g] | Activity (Rattus norvegicus [2]) [mg/dL] | Activity (Rattus norvegicus [3]) [mg/dL] | Activity (Rattus norvegicus [4]) [mg/dL] | Activity (Rattus norvegicus [5]) [mg/dL] | Activity (Rattus norvegicus [6]) [mg/dL] | Activity (Rattus norvegicus [7]) [mg/dL] | Ratio (Rattus norvegicus [8])
CC(C)(Oc1ccc(-n2c(-c3ccccc3)nc3ccccc3c2=O)cc1)C(=O)O | 284.5 | 97.5 | 64.33 | 31.6 | 24.3 | 158 | 114.8 | 3.11
CC1N(c2ccc(OCC(=O)O)cc2)C(=O)c2ccccc2N1c1ccccc1 (configuration not stated) | 274.7 | 108.9 | 70.91 | 41.4 | 12.21 | 158.8 | 114.1 | 2.67
O=C(O)COc1ccc(-n2c(-c3ccccc3)nc3ccccc3c2=O)cc1 | 281.2 | 110.8 | 57.22 | 33.7 | 28.16 | 144.8 | 112.8 | 3.26
Cc1nc2cc(O)ccc2c(=O)n1-c1ccc(OC(C)(C)C(=O)O)cc1 | 260.1 | 77.7 | 35.81 | 40.8 | 35.38 | 114.8 | 83 | 1.9
Cc1nc2cc(O)ccc2c(=O)n1-c1ccc(OCC(=O)O)cc1 | 261.7 | 77 | 47.05 | 40.5 | 37.7 | 116.8 | 85.3 | 1.88
CC1N(c2ccc(OC(C)(C)C(=O)O)cc2)C(=O)c2ccccc2N1c1ccccc1 (configuration not stated) | 277.3 | 106.4 | 54.78 | 25.5 | 22.05 | 154.8 | 115 | 4.15
Cc1nc2ccccc2c(=O)n1-c1ccc(OC(C)(C)C(=O)O)cc1 | 272.17 | 93 | 44.66 | 40 | 37.05 | 154.1 | 89.19 | 2.32
Cc1nc2ccccc2c(=O)n1-c1ccc(OCC(=O)O)cc1 | 273.85 | 78.5 | 47.66 | 39.1 | 34.89 | 117.1 | 91.8 | 1.99
CC(C)OC(=O)C(C)(C)Oc1ccc(C(=O)c2ccc(Cl)cc2)cc1 [FENOFIBRATE] | 269 | 85.4 | 54.66 | 34.38 | 37 | 125.3 | 86.41 | 2.49
